Values after ≈ are worked out from the molar mass of the structure shown.
Key:
[1] = system: Candida albicans; assay: Antifungal activity against fluconazole-resistant Candida albicans 904 assessed as inhibition of fungal growth incubated for 48 hrs by CLSI based broth microdilution assay; assay type: functional
[2] = system: Saccharomyces cerevisiae; assay: Antifungal activity against recombinant Saccharomyces cerevisiae Y570 overexpressing CaCdr1 assessed as inhibition of fungal growth incubated for 48 hrs by CLSI based broth microdilution assay; assay type: functional
[3] = molecular target: Lanosterol 14-alpha demethylase (Candida albicans (strain SC5314 / ATCC MYA-2876) (Yeast), UniProt P10613); assay: Inhibition of CYP51 in Candida albicans SC5314 assessed as 14alpha-methylfecosterol level at 0.0625 ug/ml after 8 hrs by GC-MS analysis relative to control; parameters: scale not given: the % may be the effect or the level left; conditions: at 0.0625 µg/mL
[4] = system: Candida tropicalis; assay: Potency index, ratio of ravuconazole MIC to test compound MIC for antifungal activity against Candida tropicalis 8915 assessed as inhibition of fungal growth incubated for 48 hrs by CLSI based broth microdilution assay; assay type: functional
[5] = system: Candida albicans; assay: Antifungal activity against Candida albicans SC5314 assessed as inhibition of fungal growth incubated for 48 hrs by CLSI based broth microdilution assay; assay type: functional
[6] = system: Saccharomyces cerevisiae; assay: Antifungal activity against recombinant Saccharomyces cerevisiae Y525 overexpressing CaMdr1 assessed as inhibition of fungal growth incubated for 48 hrs by CLSI based broth microdilution assay; assay type: functional
[7] = system: Saccharomyces cerevisiae; assay: Antifungal activity against recombinant Saccharomyces cerevisiae Y2301 overexpressing ScErg11 Y140F mutant assessed as inhibition of fungal growth incubated for 48 hrs by CLSI based broth microdilution assay; assay type: functional
[8] = system: [Candida] auris; assay: Antifungal activity against fluconazole-resistant Candida auris 919 assessed as inhibition of fungal growth incubated for 48 hrs by CLSI based broth microdilution assay; assay type: functional; conditions: Candidozyma auris
[9] = system: Candida albicans; assay: Antifungal activity against fluconazole-resistant Candida albicans 901 assessed as inhibition of fungal growth incubated for 48 hrs by CLSI based broth microdilution assay; assay type: functional
[10] = system: Saccharomyces cerevisiae; assay: Antifungal activity against recombinant Saccharomyces cerevisiae Y2767 overexpressing CauErg11 assessed as inhibition of fungal growth incubated for 48 hrs by CLSI based broth microdilution assay; assay type: functional
[11] = system: Nakaseomyces glabratus; assay: Antifungal activity against Candida glabrata 537 assessed as inhibition of fungal growth incubated for 48 hrs by CLSI based broth microdilution assay; assay type: functional
[12] = system: Candida albicans; assay: Antibiofilm activity against Candida albicans SC5314 assessed as increase in matured biofilm distruption at 64 ug/ml incubated for 24 hrs by XTT assay relative to control; assay type: functional; conditions: dose 64 µg/ml
[13] = system: Candida albicans; assay: Antifungal activity against Candida albicans SC5314 assessed as inhibition of hyphae formation at 0.625 ug/ml after 3 hrs by inverted microscopic analysis relative to control; assay type: functional

Lanosterol 14-alpha demethylase, sequence (P10613 whole entry): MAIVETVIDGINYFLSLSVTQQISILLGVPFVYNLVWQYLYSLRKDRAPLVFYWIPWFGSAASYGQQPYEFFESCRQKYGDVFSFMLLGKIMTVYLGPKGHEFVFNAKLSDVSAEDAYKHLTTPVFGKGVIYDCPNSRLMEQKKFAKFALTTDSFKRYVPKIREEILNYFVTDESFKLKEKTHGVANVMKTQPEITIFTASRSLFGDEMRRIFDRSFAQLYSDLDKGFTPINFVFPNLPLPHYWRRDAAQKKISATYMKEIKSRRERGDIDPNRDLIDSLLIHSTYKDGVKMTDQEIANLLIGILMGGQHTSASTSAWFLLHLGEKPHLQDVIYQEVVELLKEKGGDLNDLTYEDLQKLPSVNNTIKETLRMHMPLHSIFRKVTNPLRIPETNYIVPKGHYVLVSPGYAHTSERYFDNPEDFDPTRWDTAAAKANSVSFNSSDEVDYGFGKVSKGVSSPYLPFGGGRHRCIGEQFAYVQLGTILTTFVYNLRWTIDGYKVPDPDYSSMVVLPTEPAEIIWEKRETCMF

## C[C@@H](OCc1ccn(Cc2ccc(Cl)cc2)n1)[C@](O)(Cn1cncn1)c1ccc(F)cc1F
[1]
  MIC: 8 µg/mL (≈ 16.9 µM)
[2]
  MIC: 16 µg/mL
[3]
  Activity: ~ 20%
[4]
  Ratio: 32
[5]
  MIC: ≤ 0.125 µg/mL
[6]
  MIC: 0.125 µg/mL
[7]
  MIC: 0.008 µg/mL
[8]
  MIC: 8 µg/mL (≈ 16.9 µM)
[9]
  MIC: 16 µg/mL (≈ 33.8 µM)
[10]
  MIC: 0.008 µg/mL
[11]
  MIC: ≤ 0.125 µg/mL
[12]
  Activity: 57.3%
[13]
  inhibition at 0.625 µg/mL: 100%
